Source: PMC9578396, “Intrinsic Antibacterial Activity of Xeruborbactam In Vitro: Assessing Spectrum and Mode of Action” (Antimicrobial Agents and Chemotherapy, 2022)
Several values for one entry are separate records, joined by “and”; a condition that tells them apart may be missing. Equal entries are not always repeated. Where two headings read alike, the source gives them in different places.

Assays:
Klebsiella pneumoniae = assay: microbe, parasite or virus in culture; type: cell-based; conditions: for MIC: Klebsiella pneumoniae
How it was run: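 Test organisms were KPC-producing clinical isolates (some enriched for porin mutations), matched isolates that lost KPC plasmids, and engineered porin/efflux mutant strains. Susceptibility was measured by broth microdilution following CLSI methods, using panels prepared in-house.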

Streptococcus pneumoniae = assay: MIC, Streptococcus pneumoniae; type: cell-based
Description: Bacterial isolates were subjected to broth microdilution susceptibility testing, performed according to Clinical and Laboratory Standards Institute (CLSI) methods ([46]), using panels prepared in-house. Meropenem was purchased from Sandoz, and all other antibiotics were from Sigma-Aldrich. Xeruborbactam was synthesized at Qpex Biopharma, San Diego, CA. Avibactam was purchased from eNovation Chemicals LLC, Bridgewater, NJ, USA; zidebactam was from MedKoo Biosciences, Inc., Morrisville, NC, and nacubactam was from Advanced ChemBlocks, Hayward, CA. Durlobactam was synthesized at Acme Bioscience, Palo Alto, CA, USA.

PBP2 = tested on: PBP2; parameters: method as in PMID 18250190; conditions: value in parentheses; E. coli MC1400; cited from earlier work
PBP1a [1] = target: PBP1a (Klebsiella pneumoniae, UniProt A0A0H3GZF1); parameters: method as in PMID 29712652; conditions: read-out: IC50, PBP1a; value in parentheses; K. pneumoniae ATCC 43816; cited from earlier work
Sequence of PBP1a (Klebsiella pneumoniae, UniProt A0A0H3GZF1) (A0A0H3GZF1 entry or part of it): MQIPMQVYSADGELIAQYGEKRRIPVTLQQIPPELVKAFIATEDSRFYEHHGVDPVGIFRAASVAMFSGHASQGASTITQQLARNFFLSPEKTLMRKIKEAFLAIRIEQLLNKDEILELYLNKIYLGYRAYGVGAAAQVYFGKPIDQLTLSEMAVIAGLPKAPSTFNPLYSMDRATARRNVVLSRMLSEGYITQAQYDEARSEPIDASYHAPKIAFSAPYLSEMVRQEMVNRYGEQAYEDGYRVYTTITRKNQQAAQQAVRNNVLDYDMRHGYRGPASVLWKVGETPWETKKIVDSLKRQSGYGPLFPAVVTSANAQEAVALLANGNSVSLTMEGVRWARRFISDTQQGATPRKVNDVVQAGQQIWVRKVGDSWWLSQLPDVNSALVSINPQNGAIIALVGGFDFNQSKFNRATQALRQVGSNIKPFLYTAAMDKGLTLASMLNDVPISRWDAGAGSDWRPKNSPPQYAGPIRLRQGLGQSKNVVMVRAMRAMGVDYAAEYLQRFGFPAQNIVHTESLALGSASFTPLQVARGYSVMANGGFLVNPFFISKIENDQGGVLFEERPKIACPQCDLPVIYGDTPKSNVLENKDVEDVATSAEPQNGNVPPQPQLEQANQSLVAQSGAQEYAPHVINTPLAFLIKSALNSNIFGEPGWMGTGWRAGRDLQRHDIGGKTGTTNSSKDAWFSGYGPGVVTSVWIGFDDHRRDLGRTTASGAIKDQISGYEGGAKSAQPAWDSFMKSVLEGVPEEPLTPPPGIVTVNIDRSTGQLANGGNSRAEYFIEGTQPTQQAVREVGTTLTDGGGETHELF

PBP1b = tested on: PBP1b; parameters: method as in earlier work; conditions: value in parentheses; A. baumannii ATCC 19606; cited from earlier work
PBP1a [2] = target: T1, PBP1a (Pseudomonas aeruginosa, UniProt Q07806); parameters: method as in PMID 18250190; conditions: value in parentheses; P. aeruginosa PAO1; cited from earlier work
T1 construct: Five microliters of total bacterial membrane preparation was mixed with 5 μL of a test compound; endogenous in cells
T1 sequence (Q07806 whole entry): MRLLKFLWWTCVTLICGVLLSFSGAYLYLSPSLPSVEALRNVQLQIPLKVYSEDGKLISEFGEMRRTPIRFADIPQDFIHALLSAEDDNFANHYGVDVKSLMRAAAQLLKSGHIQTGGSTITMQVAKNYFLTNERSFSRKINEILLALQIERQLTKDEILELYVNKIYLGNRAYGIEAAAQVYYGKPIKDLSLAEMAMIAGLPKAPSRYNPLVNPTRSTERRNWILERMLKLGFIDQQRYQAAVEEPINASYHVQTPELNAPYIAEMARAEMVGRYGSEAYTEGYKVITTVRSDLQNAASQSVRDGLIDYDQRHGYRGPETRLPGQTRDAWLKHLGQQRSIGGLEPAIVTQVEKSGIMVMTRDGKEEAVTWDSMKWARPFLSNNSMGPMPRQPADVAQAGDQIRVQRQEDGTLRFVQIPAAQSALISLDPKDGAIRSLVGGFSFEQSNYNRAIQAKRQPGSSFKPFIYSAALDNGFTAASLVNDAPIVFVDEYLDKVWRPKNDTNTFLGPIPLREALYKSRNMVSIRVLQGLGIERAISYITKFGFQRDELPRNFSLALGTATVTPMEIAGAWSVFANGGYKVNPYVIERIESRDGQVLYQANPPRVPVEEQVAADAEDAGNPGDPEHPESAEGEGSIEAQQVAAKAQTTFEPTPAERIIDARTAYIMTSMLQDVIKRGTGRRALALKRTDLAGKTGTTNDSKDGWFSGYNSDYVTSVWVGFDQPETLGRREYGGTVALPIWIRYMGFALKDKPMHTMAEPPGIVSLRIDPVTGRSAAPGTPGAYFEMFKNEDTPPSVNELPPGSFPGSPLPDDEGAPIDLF

C[C@@H](O)[C@H]1C(=O)N2C(C(=O)O)=C(S[C@@H]3CN[C@H](C(=O)N(C)C)C3)[C@H](C)[C@H]12 [Meropenem]
0.03 µg/mL and 0.08 µM: MIC (Klebsiella pneumoniae; ATCC49816)
3 nM: IC50 (PBP2)
≤0.06 µg/mL: MIC90 (Klebsiella pneumoniae)
0.03 µg/mL: MIC (Klebsiella pneumoniae; no-plasmid strain KPM1026a) | MIC (Klebsiella pneumoniae; strain KPM2696, ΔacrB)
500 nM: IC50 (PBP1b) | IC50 (PBP1a [2])
2 µg/mL: MIC (Klebsiella pneumoniae; no-plasmid strain KPM1171)
0.06 µg/mL: MIC (Klebsiella pneumoniae; KPM3532 (TolQ::M189K), alone) | MIC (Klebsiella pneumoniae; KPM3532, TolQ::M189K) | MIC (Klebsiella pneumoniae; KPM3534 (TolQ::S31F), alone) | MIC (Klebsiella pneumoniae; KPM3534, TolQ::S31F) | MIC (Klebsiella pneumoniae; KPM4235, TolQ::IP(183–1844)PR) | MIC (Klebsiella pneumoniae; KPM4236, TolQ::TAA at aa 103) | MIC (Klebsiella pneumoniae; KPM4238, TolQ::S25F) | MIC (Klebsiella pneumoniae; KPM4239, TolQ::S28F) | MIC (Klebsiella pneumoniae; KPM4240, TolQ::S25Y) | MIC (Klebsiella pneumoniae; no-plasmid strain KPM1027) | MIC (Klebsiella pneumoniae; no-plasmid strain KPM2600) | MIC (Klebsiella pneumoniae; strain KPM2600, ΔompK35) | MIC (Streptococcus pneumoniae; Streptococcus pneumoniae, sp005, read-out: MIC)
5200 nM: IC50 (PBP1a [1])
4 µg/mL: MIC (Streptococcus pneumoniae; Streptococcus pneumoniae, sp122, read-out: MIC)
256 µg/mL: MIC (Klebsiella pneumoniae; KPM2631 (KPC-3; ompK36_fs ΔompK35), alone)
32 µg/mL: MIC (Klebsiella pneumoniae; KPM2601 (KPC-3; ΔompK35), alone) | MIC (Klebsiella pneumoniae; KPM4127 (KPM3532 TolQ::M189K/KPC-3), alone) | MIC (Klebsiella pneumoniae; KPM4128 (KPM3534 TolQ::S31F/KPC-3), alone)
0.125 µg/mL: MIC (Klebsiella pneumoniae; no-plasmid strain KPM2040) | MIC (Streptococcus pneumoniae; Streptococcus pneumoniae) | MIC (Streptococcus pneumoniae; sp008) | MIC (Streptococcus pneumoniae; sp121)
0.25 µg/mL: MIC (Klebsiella pneumoniae; no-plasmid strain KPM2613) | MIC (Klebsiella pneumoniae; strain KPM2613, ΔompK35 ompK36_2040) | MIC (Streptococcus pneumoniae; Streptococcus pneumoniae, sp004, read-out: MIC) | MIC (Streptococcus pneumoniae; Streptococcus pneumoniae, sp006, read-out: MIC) | MIC (Streptococcus pneumoniae; Streptococcus pneumoniae, sp009, read-out: MIC) | MIC (Streptococcus pneumoniae; Streptococcus pneumoniae, sp117, read-out: MIC) | MIC (Streptococcus pneumoniae; Streptococcus pneumoniae, sp118, read-out: MIC) | MIC (Streptococcus pneumoniae; Streptococcus pneumoniae, sp119, read-out: MIC) | MIC (Streptococcus pneumoniae; Streptococcus pneumoniae, sp120, read-out: MIC) | MIC (Streptococcus pneumoniae; Streptococcus pneumoniae, sp123, read-out: MIC) | MIC (Streptococcus pneumoniae; Streptococcus pneumoniae, sp125, read-out: MIC) | MIC (Streptococcus pneumoniae; Streptococcus pneumoniae, sp126, read-out: MIC)
≤ 0.03 µg/mL: MIC (Streptococcus pneumoniae; Streptococcus pneumoniae, sp001, read-out: MIC) | MIC (Streptococcus pneumoniae; Streptococcus pneumoniae, sp002, read-out: MIC) | MIC (Streptococcus pneumoniae; Streptococcus pneumoniae, sp003, read-out: MIC)
> 64 µg/mL: MIC (Klebsiella pneumoniae; KPM4129 (KPM3532 TolQ::M189K/NDM-1), alone) | MIC (Klebsiella pneumoniae; KPM4130 (KPM3534 TolQ::S31F/NDM-1), alone)
